Data from PMC6222422, “Synthesis and Biological Evaluation of Novel Indole-Derived Thioureas” (Molecules : A Journal of Synthetic Chemistry and Natural …, 2018).

Key:
[1] = system: BVDV; assay: microbe, parasite or virus in culture; type: cell-based, bovine viral diarrhoea virus; conditions: Bovine viral diarrhea virus isolates and strains, MDBK, in Bos taurus, read-out: BVDV EC50
[2] = Cytotoxicity, MTT method; conditions: Syrian hamster (Mesocricetus auratus)
[3] = system: YFV; assay: microbe, parasite or virus in culture; type: cell-based; conditions: Yellow fever virus, BHK, read-out: YFV EC50
[4] = Cytotoxicity, MTT method; conditions: cattle (Bos taurus)
[5] = system: RSV; assay: microbe, parasite or virus in culture; type: cell-based, human respiratory syncytial virus; conditions: for EC50: human respiratory syncytial virus, Vero 76, read-out: RSV EC50
[6] = Cytotoxicity, MTT method; conditions: African green monkey (Cercopithecus aethiops)
[7] = system: Reo-1; assay: microbe, parasite or virus in culture; type: cell-based, reovirus type-1; conditions: Reovirus sp., BHK, read-out: Reo-1 EC50
[8] = system: HSV-1; assay: microbe, parasite or virus in culture; type: cell-based, human herpes 1; conditions: Human alphaherpesvirus 1, Vero 76, read-out: HSV-1 EC50
[9] = system: VV; assay: microbe, parasite or virus in culture; type: cell-based; conditions: Orthopoxvirus vaccinia, Vero 76, read-out: VV EC50
[10] = system: VSV; assay: microbe, parasite or virus in culture; type: cell-based; conditions: Vesicular stomatitis virus, Vero 76, read-out: VSV EC50
[11] = system: HIV-1; assay: microbe, parasite or virus in culture; conditions: Human immunodeficiency virus 1, MT4, read-out: HIV-1 EC50
[12] = Cytotoxicity, MTT method; conditions: human
[13] = system: Sb-1; assay: microbe, parasite or virus in culture; type: cell-based, poliovirus type-1; conditions: Enterovirus C, Vero 76, read-out: Sb-1 EC50
[14] = system: CV-B5; assay: microbe, parasite or virus in culture; type: cell-based, coxsackievirus B5; conditions: Enterovirus B, CVB5, Vero 76, read-out: CV-B5 EC50

| Compound | EC50 [1] | CC50 [2] | EC50 [3] | CC50 [4] | EC50 [5] | CC50 [6] | EC50 [7] | EC50 [8] | EC50 [9] | EC50 [10] | EC50 [11] | CC50 [12] | EC50 [13] | EC50 [14] | melting point | activity against RSV (in words) [5] |
| --- | --- | --- | --- | --- | --- | --- | --- | --- | --- | --- | --- | --- | --- | --- | --- | --- |
| C[C@@]1(O)[C@H](O)[C@@H](CO)O[C@H]1n1cnc2c(=O)[nH]c(N)nc21 [2′-C-methyl-guanosine, 2′-C-methylguanosine, reference compound] | 1.1 ± 0.1 µM | > 10 µM | 1.9 ± 0.1 µM | > 10 µM | – | – | – | – | – | – | – | – | – | – | – | – |
| O=c1cnn([C@@H]2O[C@H](CO)[C@@H](O)[C@H]2O)c(=O)[nH]1 [6-Aza-uridine, 6-azauridine, reference compound] | – | – | – | – | 1.4 ± 0.06 µM | 12 µM | – | – | – | – | – | – | – | – | – | – |
| COc1ccc(NC(=S)NCCc2c[nH]c3ccccc23)cc1 [Compound 2, 1-(2-(1H-Indol-3-yl)ethyl)-3-(4-methoxyphenyl)thiourea] | > 100 µM | 44 µM | > 44 µM | > 100 µM | > 56 µM | 56 µM | > 44 µM | > 56 µM | > 56 µM | > 56 µM | > 32 µM | 32 µM | > 56 µM | > 56 µM | 146 to 148 °C | – |
| Cc1ccc(NC(=S)NCCc2c[nH]c3ccccc23)cc1 [Compound 3, 1-(2-(1H-Indol-3-yl)ethyl)-3-(4-methylphenyl)thiourea] | ≥ 100 µM | 16 µM | > 16 µM | > 100 µM | 20 ± 3 µM | 75 µM | > 16 µM | > 75 µM | > 75 µM | > 75 µM | > 33 µM | 33 µM | > 75 µM | > 75 µM | – | moderately active |
